Experiments:
Format in all cases: biochemical
[1] = molecular target: T1, human IGF1R cytoplasmic domain (Homo sapiens, UniProt P08069); test: IGF1R autophosphorylation inhibition, time resolved fluorescence (HTRF) assay; settings: 10 μM; read-out: IGF1R % inhib at 10 μM
T1 construct: The human IGF1R cytoplasmic domain was cloned; made in house; host or cells: SF21 insect cells (baculovirus)
Description: The inhibitory activity of the compounds on IGF1R is determined by measuring the inhibition of the autophosphorylation of the enzyme using a time resolved fluorescence (HTRF) assay.
The human IGF1R cytoplasmic domain was cloned, as a fusion with glutathione S-transferase (GST), into the baculovirus expression vector pFastBac-GST. The protein was expressed in SF21 cells and purified to approximately 80% homogeneity.
The kinase activity was determined by incubating the enzyme with various concentrations of test compound in a 50 mM Hepes buffer, pH 7.5, containing 5 mM MnCl2, 50 mM NaCl, 3% glycerol, 0.025% Tween […] of ATP. The enzyme reaction is stopped by adding 100 mM Hepes buffer, pH 7.0, containing 0.4 M KF, 133 mM EDTA and 0.1% BSA containing an anti-GST antibody labeled with XL665 and an antiphosphotyrosine antibody conjugated to europium cryptate (Eu-K). The characteristics of the two fluorophores, XL-665 and Eu-K, are available in G. Mathis et al., Anticancer Research, 1997, 17, pages 3011-3014. The transfer of energy from the excited europium cryptate to the acceptor XL665 is proportional to the degree of autophosphorylation of IGF1R. The long-lived signal specific for XL-665 is measured in a Victor analyzer plate counter (Perkin-elmer). The inhibition of the IGF1R autophosphorylation activity with compounds of the invention is expressed as percentage inhibition compared to a control whose activity is measured in the absence of test compound.

[2] = molecular target: T2, human FAK (Homo sapiens, UniProt Q05397); test: FAK autophosphorylation inhibition, time resolved fluorescence (HTRF) assay; settings: 10 μM (values without asterisk); read-out: FAK % inhib at 10 μM
T2 construct: The complete cDNA of human FAK; made in house; host or cells: baculovirus expression system (vector pFastBac HTc)
T2 sequence (Q05397 whole entry): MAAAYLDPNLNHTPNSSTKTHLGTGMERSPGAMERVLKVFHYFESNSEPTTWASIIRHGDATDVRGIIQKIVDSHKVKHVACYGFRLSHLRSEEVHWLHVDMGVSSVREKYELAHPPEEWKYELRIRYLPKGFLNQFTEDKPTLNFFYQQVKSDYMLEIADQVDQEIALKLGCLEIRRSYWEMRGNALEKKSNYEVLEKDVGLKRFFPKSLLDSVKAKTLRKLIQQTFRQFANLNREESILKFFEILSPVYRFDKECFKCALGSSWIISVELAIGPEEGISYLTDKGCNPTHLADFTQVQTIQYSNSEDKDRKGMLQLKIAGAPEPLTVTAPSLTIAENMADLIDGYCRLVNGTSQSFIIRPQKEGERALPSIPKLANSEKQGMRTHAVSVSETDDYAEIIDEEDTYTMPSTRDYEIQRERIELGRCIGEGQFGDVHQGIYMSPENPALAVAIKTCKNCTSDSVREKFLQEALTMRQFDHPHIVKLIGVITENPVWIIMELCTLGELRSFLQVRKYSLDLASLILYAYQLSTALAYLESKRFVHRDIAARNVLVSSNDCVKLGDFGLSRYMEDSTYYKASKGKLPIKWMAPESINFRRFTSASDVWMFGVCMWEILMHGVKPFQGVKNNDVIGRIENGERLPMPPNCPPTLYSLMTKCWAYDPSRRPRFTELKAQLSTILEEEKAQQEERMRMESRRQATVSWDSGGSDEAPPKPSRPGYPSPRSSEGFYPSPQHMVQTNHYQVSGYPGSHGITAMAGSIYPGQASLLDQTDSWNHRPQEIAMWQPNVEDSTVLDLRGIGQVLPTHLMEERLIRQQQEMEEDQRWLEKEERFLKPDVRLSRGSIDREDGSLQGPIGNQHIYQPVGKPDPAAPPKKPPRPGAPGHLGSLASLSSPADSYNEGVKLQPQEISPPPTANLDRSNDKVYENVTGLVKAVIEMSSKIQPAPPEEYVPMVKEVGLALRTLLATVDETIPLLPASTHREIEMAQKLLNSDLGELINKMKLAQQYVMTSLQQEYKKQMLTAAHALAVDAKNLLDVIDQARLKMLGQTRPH
Method in brief: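 His-tagged full-length human FAK from baculovirus (6.6 µg/ml) self-phosphorylates with 15 µM ATP in HEPES pH 7.2, MgCl2, vanadate, 1 h at 37 °C. HTRF detection (Eu-anti-phosphotyrosine / XL665-anti-His), 665/620 nm ratio; % inhibition vs untreated control, duplicate mean.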

[3] = molecular target: T3, Aurora2 kinase (Homo sapiens, UniProt O14965); test: Aurora2 kinase radioactivity scintillation assay using nickel chelate (NuMA substrate); settings: 10 μM; read-out: Aurora2 % inhib at 10 μM
T3 construct: A complete recombinant Aurora2 enzyme; His tag (N); made in house; host or cells: E. coli
T3 sequence (O14965 1-403): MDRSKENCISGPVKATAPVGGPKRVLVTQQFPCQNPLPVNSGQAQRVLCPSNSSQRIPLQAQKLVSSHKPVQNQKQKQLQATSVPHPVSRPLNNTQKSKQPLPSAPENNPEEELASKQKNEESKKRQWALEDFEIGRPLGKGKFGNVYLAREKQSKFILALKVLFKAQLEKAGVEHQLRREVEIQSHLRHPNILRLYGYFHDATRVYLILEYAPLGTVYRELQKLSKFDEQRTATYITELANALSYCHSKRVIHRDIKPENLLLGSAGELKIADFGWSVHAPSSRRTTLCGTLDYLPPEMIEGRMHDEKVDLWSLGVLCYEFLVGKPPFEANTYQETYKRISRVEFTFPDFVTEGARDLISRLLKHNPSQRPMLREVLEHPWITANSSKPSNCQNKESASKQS
Method in brief: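 His-tagged full-length Aurora2 (0.02 μM, E. coli) phosphorylating His-tagged NuMA C-terminal fragment (0.5 μM) with 1 μM ATP plus [33P]-ATP, 30 min at 37 °C, pH 7.5 Tris buffer with MgCl2. Nickel-chelate scintillation read; percent inhibition versus no-compound control.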

[4] = molecular target: T4, human KDR enzyme (Homo sapiens, UniProt P35968); test: KDR substrate (PLCγ) phosphorylation, scintillation assay; settings: 10 μM; for inhibition at 10 µM: read-out: KDR % inhib at 10 μM
T4 construct: The cytoplasmic domain of the human KDR enzyme; GST; made in house; host or cells: SF21 insect cells (baculovirus)
T4 sequence (P35968 786-1356 limits assumed): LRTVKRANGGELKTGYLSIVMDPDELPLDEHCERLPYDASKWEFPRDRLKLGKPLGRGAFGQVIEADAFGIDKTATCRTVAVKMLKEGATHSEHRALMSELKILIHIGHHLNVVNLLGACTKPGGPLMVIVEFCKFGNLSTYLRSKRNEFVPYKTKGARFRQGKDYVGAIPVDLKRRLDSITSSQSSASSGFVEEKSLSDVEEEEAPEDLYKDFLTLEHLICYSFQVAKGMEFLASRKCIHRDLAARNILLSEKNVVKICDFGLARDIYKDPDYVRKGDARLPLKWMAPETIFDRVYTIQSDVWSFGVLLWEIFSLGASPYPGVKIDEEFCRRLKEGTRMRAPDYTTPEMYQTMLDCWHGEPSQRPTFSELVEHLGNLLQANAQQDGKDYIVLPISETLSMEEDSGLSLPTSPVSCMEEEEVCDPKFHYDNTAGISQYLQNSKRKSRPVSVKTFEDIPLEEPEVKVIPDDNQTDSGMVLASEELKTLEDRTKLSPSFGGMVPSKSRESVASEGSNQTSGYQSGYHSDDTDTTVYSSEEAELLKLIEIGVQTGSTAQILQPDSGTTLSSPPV
Method in brief: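 GST-fused human KDR cytoplasmic domain from SF21 cells (about 60% pure, 100 ng) phosphorylated 2 μg of GST-PLCγ SH2-SH3 fragment. The trigger solution held γ33P-ATP with 2 μM cold ATP, in MOPS buffer pH 7.2 with Mg2+, Mn2+, vanadate and NaF. Reactions ran 1 h at 37 °C, were stopped with EDTA and counted by scintillation; results are % inhibition versus the no-compound control.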

T1 sequence (P08069 960-1367 limits assumed): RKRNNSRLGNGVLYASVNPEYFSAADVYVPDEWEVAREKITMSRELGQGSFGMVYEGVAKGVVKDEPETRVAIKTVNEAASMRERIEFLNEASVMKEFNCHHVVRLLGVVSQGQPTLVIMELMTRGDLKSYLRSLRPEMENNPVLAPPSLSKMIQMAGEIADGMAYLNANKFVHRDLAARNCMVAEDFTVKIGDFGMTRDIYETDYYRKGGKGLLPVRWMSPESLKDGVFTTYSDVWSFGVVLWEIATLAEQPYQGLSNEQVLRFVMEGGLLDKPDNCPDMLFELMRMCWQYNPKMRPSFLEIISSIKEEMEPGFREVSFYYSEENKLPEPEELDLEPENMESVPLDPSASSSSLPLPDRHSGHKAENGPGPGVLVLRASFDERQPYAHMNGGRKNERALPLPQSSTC

SMILES	inhibition at 10 µM [1]	inhibition at 10 µM [2]	inhibition at 10 µM [3]	inhibition at 10 µM [4]	KDR % inhib at 10 μM [4]
N#Cc1ccccc1S(=O)(=O)Nc1ccc2[nH]nc(-c3ccccc3)c2c1 [Example 144, 2-Cyano-N-(3-phenyl-1H-indazol-5-yl)-benzenesulfonamide]	69%	70%	100%	72%	
CC1(C)[C@H]2CCC1(CS(=O)(=O)Nc1ccc3[nH]nc(-c4ccccc4)c3c1)C(=O)C2 [Example 148, C-(7,7-Dimethyl-2-oxo-bicyclo[2.2.1]hept-1-yl)-N-(3-phenyl-1H-indazol-5-yl)-methanesulfonamide]	30%	36%	77%	61%	
O=S(=O)(Nc1ccc2[nH]nc(-c3ccccc3)c2c1)c1cccc2nonc12 [Example 149, N-(3-Phenyl-1H-indazol-5-yl)-benzo[1,2,5]oxadiazole-4-sulfonamide]	67%	78%	100%	57%	
CS(=O)(=O)c1ccc(S(=O)(=O)Nc2ccc3[nH]nc(-c4ccccc4)c3c2)cc1 [Example 155, 4-Methanesulfonyl-N-(3-phenyl-1H-indazol-5-yl)-benzenesulfonamide]	50%	5%	61%	61%	
Nc1cc(Cl)cc(Cl)c1S(=O)(=O)Nc1ccc2[nH]nc(-c3ccccc3)c2c1 [Example 159, 2-Amino-4,6-dichloro-N-(3-phenyl-1H-indazol-5-yl)-benzenesulfonamide]	58%	53%	77%	86%	
CS(=O)(=O)c1ccccc1S(=O)(=O)Nc1ccc2[nH]nc(-c3ccc(Br)cc3)c2c1 [Example 161, N-[3-(4-Bromophenyl)-1H-indazol-5-yl]-2-methanesulfonyl-benzenesulfonamide]	75%	61%	89%	65%	
CS(=O)(=O)c1ccccc1S(=O)(=O)Nc1ccc2[nH]nc(-c3cccc([N+](=O)[O-])c3)c2c1 [Example 162, 2-Methanesulfonyl-N-[3-(3-nitrophenyl)-1H-indazol-5-yl]-benzenesulfonamide]	82%	97%	91%	57%	
CS(=O)(=O)c1ccccc1S(=O)(=O)Nc1ccc2[nH]nc(-c3ccc(Cl)cc3Cl)c2c1 [Example 163, N-[3-(2,4-Dichlorophenyl)-1H-indazol-5-yl]-2-methanesulfonyl-benzenesulfonamide]	23%	61%	64%	61%	
Cc1ccc(-c2n[nH]c3ccc(NS(=O)(=O)c4ccccc4S(C)(=O)=O)cc23)cc1 [Example 164, 2-Methanesulfonyl-N-(3-p-tolyl-1H-indazol-5-yl)-benzenesulfonamide]	66%	90%	91%	71%	
Cc1cccc(-c2n[nH]c3ccc(NS(=O)(=O)c4ccccc4S(C)(=O)=O)cc23)c1 [Example 165, 2-Methanesulfonyl-N-(3-m-tolyl-1H-indazol-5-yl)-benzenesulfonamide]	71%	96%	92%	58%	
CN(C)c1cccc2c(S(=O)(=O)Nc3cccc(-c4n[nH]c5ccc(NS(=O)(=O)c6ccccc6S(C)(=O)=O)cc45)c3)cccc12 [Example 166, N-{3-[5-(2-Methanesulfonyl-benzenesulfonylamino)-1H-indazol-3-yl]phenyl}-5-dimethylaminonaphthalene-1-sulfonamide]	20%	53%	61%	33%	
CS(=O)(=O)c1ccccc1S(=O)(=O)Nc1ccc2[nH]nc(-c3ccc(F)c(Cl)c3)c2c1 [Example 167, N-[3-(3-Chloro-4-fluoro-phenyl)-1H-indazol-5-yl]-2-methanesulfonyl-benzenesulfonamide]	77%	91%	90%	44%	
CS(=O)(=O)c1ccccc1S(=O)(=O)Nc1ccc2[nH]nc(-c3cc(Cl)cc(Cl)c3)c2c1 [Example 168, N-[3-(3,5-Dichlorophenyl)-1H-indazol-5-yl]-2-methanesulfonyl-benzenesulfonamide]	50%	95%	87%	49%	
CS(=O)(=O)c1ccccc1S(=O)(=O)Nc1ccc2[nH]nc(-c3cccc4c3oc3ccccc34)c2c1 [Example 169, N-(3-(Dibenzofuran-4-yl)-1H-indazol-5-yl)-2-methanesulfonyl-benzenesulfonamide]	13%	22%	52%	66%	
CS(=O)(=O)c1ccccc1S(=O)(=O)Nc1ccc2[nH]nc(-c3ccc(-c4ccccc4)cc3)c2c1 [Example 170, N-(3-Biphenyl-4-yl-1H-indazol-5-yl)-2-methanesulfonyl-benzenesulfonamide]	41%	62%	69%	60%	
CS(=O)(=O)c1ccccc1S(=O)(=O)Nc1ccc2[nH]nc(-c3ccc(Oc4ccccc4)cc3)c2c1 [Example 171, 2-Methanesulfonyl-N-[3-(4-phenoxyphenyl)-1H-indazol-5-yl]benzenesulfonamide]	20%	25%	59%	40%	
CSc1ccc(-c2n[nH]c3ccc(NS(=O)(=O)c4ccccc4S(C)(=O)=O)cc23)cc1 [Example 172, 2-Methanesulfonyl-N-[3-(4-methylsulfanylphenyl)-1H-indazol-5-yl]-benzenesulfonamide]	84%	92%	94%	71%	
CS(=O)(=O)c1ccccc1S(=O)(=O)Nc1ccc2[nH]nc(-c3ccccc3-c3ccccc3)c2c1 [Example 173, N-(3-Biphenyl-2-yl-1H-indazol-5-yl)-2-methanesulfonyl-benzenesulfonamide]	27%	62%	77%	32%	
CS(=O)(=O)c1ccccc1S(=O)(=O)Nc1ccc2[nH]nc(-c3cccs3)c2c1 [Example 174, 2-Methanesulfonyl-N-(3-thiophen-2-yl-1H-indazol-5-yl)-benzenesulfonamide]	65%	100%	93%		53%
CS(=O)(=O)c1ccccc1S(=O)(=O)Nc1ccc2[nH]nc(-c3cccc(C(F)(F)F)c3)c2c1 [Example 175, N-[3-(3-Trifluoromethylphenyl)-1H-indazol-5-yl]-2-methanesulfonyl-benzenesulfonamide]	81%	90%	88%	68%	
